US20240358744A1, “WOUND HEALING DRESSINGS AND FORMULATIONS AND METHODS OF USE THEREOF” (POLAROID IP B.V., priority 2023, published 2024)
Converted amounts (≈) assume the structure as drawn.

Key:
[1] = system: Staphylococcus aureus MR1; assay: MBC, spot plating after 24 h; conditions: Example 11
Procedure: (§5) To determine MBC compound concentrations breakpoints were estimated from MIC curves. Overnight cultures were set up as described above for all bacterial strains. The following day overnight cultures were adjusted to give a cell density of 5×10^5 cells per mL. Briefly, cultures were adjusted to the McFarland standard (0.08-0.12) and diluted (1:150). Adjusted cultures were inoculated into 96 well plates with 50 μL sterile Muller-Hinton broth (MHB) and 2 concentrations of each compound. […] MBC cultures were quantified by serial dilution in a 96 well plate and spot plating onto Muller-Hinton agar (MHA). MHA plates were incubated at 37° C. for 24 h and counted. Results are presented as CFU per mL.
(§6) To determine MBC compound concentrations, breakpoints were estimated from MIC curves. Overnight cultures were set up as described above for all bacterial strains. The following day overnight cultures were adjusted to give a cell density of 5×10^5 cells per mL. Briefly, cultures were adjusted to the McFarland standard (0.08-0.12) and diluted (1:150). Adjusted cultures were inoculated into 96 well plates with 50 μL sterile Muller-Hinton broth (MHB) and 2 concentrations of each compound. […] MBC cultures were quantified by serial dilution in a 96 well plate and spot plating onto Muller-Hinton agar (MHA). MHA plates were incubated at 37° C. for 24 hours and counted.

[2] = system: Enterococcus faecalis ATCC 19433; assay: MBC, spot plating after 24 h; conditions: Enterococcus faecalis EF19433; Example 11
Procedure: as §5, §6

[3] = system: Enterococcus faecalis ATCC 51299; assay: MBC, spot plating after 24 h; conditions: Enterococcus faecalis EF51299; Example 11
Procedure: as §5, §6

[4] = system: Escherichia coli ATCC 25922; assay: MBC, spot plating after 24 h; conditions: for MBC EC25922: Table 18
Procedure: as §5, §6

[5] = system: Staphylococcus aureus ATCC 29213; assay: MBC, spot plating after 24 h; conditions: Staphylococcus aureus 29213; Example 11
Procedure: as §5, §6

[6] = system: Pseudomonas aeruginosa ATCC 27853; assay: MBC, spot plating after 24 h; conditions: Pseudomonas aeruginosa 27853; Example 11
Procedure: as §5, §6

[7] = system: Staphylococcus aureus NRS384; type: cell-based; conditions: Example 11
[8] = system: Klebsiella pneumoniae KL1; assay: MBC, spot plating after 24 h
Procedure: as §5, §6

[9] = system: Pseudomonas aeruginosa ATCC 27853; assay: MIC, broth microdilution in MH broth (resazurin); conditions: Table 17; modified Gompertz model; not marked ^: unreliable estimation, interpret with caution
[10] = system: Escherichia coli ATCC 25922; assay: MIC, broth microdilution in MH broth (resazurin); conditions: Table 17; modified Gompertz model; not marked ^: unreliable estimation, interpret with caution
[11] = system: Enterococcus faecalis ATCC 19433; assay: MIC, broth microdilution in MH broth (resazurin); conditions: Table 17, modified Gompertz model
[12] = system: Human Keratinocyte (HaCaT) cells; assay: LDH cytotoxicity assay, HaCaT; type: cell-based; conditions: Table 16, summarized cell toxicity value, 24 hours treatment
Procedure: (§1) Primary Human Dermal Fibroblast (HDFs) and Human Keratinocyte (HaCaT) cells were selected for cytotoxicity and proliferation testing. HDFs were cultured in high glucose, no glutamine, no phenol red, Dulbecco's Modified Eagle Medium (DMEM) (GIBCO™). HDF media was further supplemented with 10% heat-inactivated fetal bovine serum (GIBCO™), 1% L-glutamine (GIBCO™) and 1% Penicillin-streptomycin (GIBCO™). HaCaTs cells were cultured in high glucose, no glutamine, no calcium DMEM (GIBCO™) supplemented with 10% heat inactivated foetal bovine serum, 1% L-glutamine, 1% Penicillin-streptomycin 1 mM calcium chloride (Sigma) throughout.
(§2) Mammalian cell populations were maintained in standard culture conditions at 37° C., 5% CO2 and >95% relative humidity. Upon reaching 80% total confluency, cells were removed from the incubator, the culture media aspirated, and the monolayer washed with Dulbecco's […] (DPBS). After washing, 10 mL of 1% trypsin (GIBCO™) was added to the flask and incubated to facilitate the detachment of cells from the culture vessel. Following dissociation, 10 mL of culture media was then added to each flask to neutralize the trypsin enzyme activity. The total 20-mL flask volume was transferred into a universal tube and centrifuged at 400 rcf for 5 minutes. Once complete, the pellet of cells was re-suspended in 10 mL warmed culture media and the number of cells per mL was determined using a hemocytometer counting chamber. Cell suspensions were then adjusted to 5×10^4 cells/mL for HDFs and 1×10^5 cells/mL for HaCaTs. 100 μL of the cell suspension was added to each well of a sterile, cell-culture-treated 96-well microtiter plate. The plates were incubated in standard culture conditions for 16-24 hours to allow cellular adherence to the culture vessel. […] Culture plates were removed from the incubator, the media removed; and monolayers washed with 100 μL of warmed DPBS. The contents of the test item dilution plates were transferred to the culture plates. […]
(§3) The secretion of lactate dehydrogenase (LDH) enzyme was used for quantitatively measuring cell damage and cytotoxicity. As damage to the cell plasma membrane releases LDH into the cell culture media, the extracellular LDH in the media can be quantified by a coupled enzymatic reaction in which LDH catalyzes the conversion of lactate to pyruvate via NAD+ reduction to NADH. […]
(§4) Following incubation with the selected compounds, 50 μL of media from each well was transferred to the corresponding well of a fresh 96 well culture plate. The presence of Lactate dehydrogenase (LDH) was then quantified using the INVITROGEN™ CyQUANT™ LDH Cytotoxicity Assay, fluorescence kit. Total fluorescence was measured by reading the plates on a plate reader at an excitation of 560 nm and an emission of 590 nm. […]

[13] = system: Primary Human Dermal Fibroblast (HDFs); assay: LDH cytotoxicity assay, HDF; type: cell-based; conditions: Table 16, summarized cell toxicity value, 24 hours treatment
Procedure: as §1, §2, §3, §4

[14] = system: Staphylococcus aureus MR1; assay: MIC, broth microdilution in MH broth (resazurin); conditions: Table 17; modified Gompertz model; not marked ^: unreliable estimation, interpret with caution
[15] = system: Klebsiella pneumoniae KL1; assay: MIC, broth microdilution in MH broth (resazurin); conditions: Table 17; modified Gompertz model; not marked ^: unreliable estimation, interpret with caution
[16] = system: Staphylococcus aureus NRS384; assay: Murine wound infection model, bacterial CFU/wound (Example 6); conditions: Study 2 pilot; daily application of vancomycin (10 μg per wound)
S. aureus NRS 384 = assay: Mouse Staphylococcus aureus-induced wound infection model, bacteria load in wound site (Studies I-V); conditions: for Ig(CFU/wound site) / ΔIg(CFU/wound site) vs infection control: Study III (Table 12), 1 mg/ml
[17] = Assessment of MIC of select compounds, DMSO stocks (Example 8, Table 21); type: cell-based
[18] = 10 μL/wound site, 10 μg/wound site, twice a day, 24 h p.i.
[19] = 10 μL/wound site, 10 μg/wound site, twice a day, 48 h p.i.
[20] = 10 μL/wound site, 10 μg/wound site, twice a day, 72 h p.i.
[21] = 50 μL/wound site, 50 μg/wound site, twice a day, 24 h p.i.

In the case of CN[C@H](CC(C)C)C(=O)N[C@H]1C(=O)N[C@@H](CC(N)=O)C(=O)N[C@H]2C(=O)N[C@H]3C(=O)N[C@H](C(=O)N[C@H](C(=O)O)c4cc(O)cc(O)c4-c4cc3ccc4O)[C@H](O)c3ccc(c(Cl)c3)Oc3cc2cc(c3O[C@@H]2O[C@H](CO)[C@@H](O)[C@H](O)[C@H]2O[C@H]2C[C@](C)(N)[C@H](O)[C@H](C)O2)Oc2ccc(cc2Cl)[C@H]1O [Van], the “MBC Concentration (μM) B” value [1] is reported as 0.02 µM (≈ 0.029 µg/mL), the “MBC Concentration (μM) E” value [2] is reported as 0.08 µM (≈ 0.116 µg/mL) and the “MBC Concentration (μM) D” value [3] is reported as 0.04 µM (≈ 0.058 µg/mL). The “MBC Concentration (μM) H” value ([4]; Escherichia coli EC25922, Example 11) was 0.31 µM (≈ 0.449 µg/mL), the “MBC Concentration (μM) A” value [5] was 0.02 µM (≈ 0.029 µg/mL) and the “MBC Concentration (μM) G” value [6] was 2.50 µM (≈ 3.62 µg/mL). For the same molecule, the “MBC Concentration (μM) C” value [7] was 0.02 µM (≈ 0.029 µg/mL) and the “MBC Concentration (μM) F” value ([8]; Klebisella pneumoniae KL1, Example 11) was 1.25 µM (≈ 1.81 µg/mL).

In the case of CCCCCC[N+](C)(C)CCOCCO.[Br-] [Compound 40598_109448], the “MIC PA27853” value [9] is reported as 0.06 µM, the “MIC EC25922” value [10] is reported as 0.83 µM and the “MIC EF19433” value ([11]; not marked ^: unreliable estimation, interpret with caution) is reported as “Unstable”. For the same molecule, the “Mammalian Cell Cytotoxicity, HaCaT” value [12] was >100 µM and the “Mammalian Cell Cytotoxicity, HDF” value [13] was >100 µM.

In the case of CCCCCCCCCCCC[N+](C)(C)CCOCCO.[Br-] [Compound 40597_109444], the “Mammalian Cell Cytotoxicity, HaCaT” value [12] is reported as 100 µM, the “MIC MR1” value [14] is reported as 0.94 µM and the “Mammalian Cell Cytotoxicity, HDF” value [13] is reported as 100 µM. The “MIC KL1” value [15] was 0.01 µM.

In the case of CCCCCCCCCCCCCCCCCC[N+](C)(C)CCOCCO.[Br-] [Compound 39637_105543], the “MIC EF19433” value ([11]; marked ^: reliable estimation of MIC) is reported as 3.20^ μM, the “Mammalian Cell Cytotoxicity, HaCaT” value [12] is reported as 6.3 µM and the “Mammalian Cell Cytotoxicity, HDF” value [13] is reported as 6.3 µM. For the same molecule, the “MIC KL1” value [15] was “+infinity”.

In the case of CCCCCCCCCCCCCCCCCC[N+](C)(C)CCOCCO.[Br-] [Compound 39637_109466], the “Mammalian Cell Cytotoxicity, HaCaT” value [12] is reported as 6.3 µM, the “MBC EC25922” value [4] is reported as 25 µM and the “Mammalian Cell Cytotoxicity, HDF” value [13] is reported as 6.3 µM. For the same molecule, the “MBC KL1” value ([8]; Table 18) was 50 µM.

With CCCCCCCCCCCCCCCCCC[N+](C)(C)CCOCCO.[Br-] [39637 105543] the “MBC EC25922” value [4] was 25 µM.

With CN[C@H](CC(C)C)C(=O)N[C@H]1C(=O)N[C@@H](CC(N)=O)C(=O)N[C@H]2C(=O)N[C@H]3C(=O)N[C@H](C(=O)N[C@H](C(=O)O)c4cc(O)cc(O)c4-c4cc3ccc4O)[C@H](O)c3ccc(c(Cl)c3)Oc3cc2cc(c3O[C@@H]2O[C@H](CO)[C@@H](O)[C@H](O)[C@H]2O[C@H]2C[C@](C)(N)[C@H](O)[C@H](C)O2)Oc2ccc(cc2Cl)[C@H]1O [Vancomycin] the “log reduction in wound S. aureus at 24 hrs post-seeding” value [16] was 1 log, the “log reduction in wound S. aureus at 72 hrs post-seeding” value [16] was 1 log and the “Ig (CFU/wound site) 12 h p.i.” value (S. aureus NRS 384; Study I, inoculum 4.20E+06 CFU/wound site, 39637 and 20-1 100 μM, 50 μL/wound site, once a day, Vancomycin 1 mg/ml, 10 μL/wound site, twice a day, starting at 5 min p.i.) was 8.47 ± 0.22 Ig (CFU/wound site). For the same molecule, the “Ig (CFU/wound site) 24 h p.i.” value (S. aureus NRS 384; Study I, same regimens as E1) was 7.67 ± 0.60 Ig (CFU/wound site), the “ΔIg (CFU/wound site) vs 12 h infection control” value (S. aureus NRS 384; Study I, same regimens as E1) was −0.11 ± 0.22 Ig (CFU/wound site) and the “ΔIg (CFU/wound site) vs 24 h infection control” value (S. aureus NRS 384; Study I, same regimens as E1) was −1.12 ± 0.60 Ig (CFU/wound site). For the same molecule, the “effect at 12-hour post infection” value (S. aureus NRS 384; Study I, single dose at 10 μg) was “not manifest”, the “Ig(CFU/wound site)” value (S. aureus NRS 384; [18]) was 7.67 Ig(CFU/wound site) and the “ΔIg(CFU/wound site) vs infection control” value (S. aureus NRS 384; [18]) was −1.11 Ig(CFU/wound site). For the same molecule, the “Ig(CFU/wound site)” value (S. aureus NRS 384; [19]) was 5.29 Ig(CFU/wound site), the “ΔIg(CFU/wound site) vs infection control” value (S. aureus NRS 384; [19]) was −3.28 Ig(CFU/wound site) and the “Ig(CFU/wound site)” value (S. aureus NRS 384; [20]) was 5.12 Ig(CFU/wound site). For the same molecule, the “ΔIg(CFU/wound site) vs infection control” value (S. aureus NRS 384; [20]) was −2.83 Ig(CFU/wound site), the “Ig(CFU/wound site)” value (S. aureus NRS 384; [21]) was 4.37 Ig(CFU/wound site) and the “ΔIg(CFU/wound site) vs infection control” value (S. aureus NRS 384; [21]) was −4.40 Ig(CFU/wound site). For the same molecule, the “MIC Concentration” value ([17]; Enterococcus faecalis EF19433) was 5.00 µM, the “MIC Concentration” value ([17]; Escherichia coli EC25922) was 0.63 µM and the “MIC Concentration” value ([17]; Klebisella oxytoca KL1) was 0.63 µM. For the same molecule, the “MIC Concentration” value ([17]; Pseudomonas aeruginosa 27853) was 5.00 µM, the “MIC Concentration” value ([17]; Staphylococcus aureus 29213) was 0.04 µM and the “MIC Concentration” value ([17]; Staphylococcus aureus MR1) was 0.04 µM. The “MIC Concentration” value ([17]; Staphylococcus aureus NRS384) was 0.04 µM.
